Assay results published in article PMC5917010, “Structural basis for GPR40 allosteric agonism and incretin stimulation” (Nature Communications, 2018).

How the values were obtained:
human GPR40 [1] = target: T1, human GPR40 (Homo sapiens, UniProt O14842); assay: Human GPR40 Calcium (Supplementary Table 1); assay type: cell-based
T1 construct: HEK293 cells stably overexpressing full length human GPR40; expressed in transfected cells

human GPR40 [2] = target: T1, human GPR40; assay: Human GPR40 IP1; assay type: cell-based
human PPARgama = target: T2, human PPARgama (Homo sapiens, UniProt P37231); assay: human PPARgamma binding; conditions: Supplementary Table 1
T2 sequence (P37231 1-505): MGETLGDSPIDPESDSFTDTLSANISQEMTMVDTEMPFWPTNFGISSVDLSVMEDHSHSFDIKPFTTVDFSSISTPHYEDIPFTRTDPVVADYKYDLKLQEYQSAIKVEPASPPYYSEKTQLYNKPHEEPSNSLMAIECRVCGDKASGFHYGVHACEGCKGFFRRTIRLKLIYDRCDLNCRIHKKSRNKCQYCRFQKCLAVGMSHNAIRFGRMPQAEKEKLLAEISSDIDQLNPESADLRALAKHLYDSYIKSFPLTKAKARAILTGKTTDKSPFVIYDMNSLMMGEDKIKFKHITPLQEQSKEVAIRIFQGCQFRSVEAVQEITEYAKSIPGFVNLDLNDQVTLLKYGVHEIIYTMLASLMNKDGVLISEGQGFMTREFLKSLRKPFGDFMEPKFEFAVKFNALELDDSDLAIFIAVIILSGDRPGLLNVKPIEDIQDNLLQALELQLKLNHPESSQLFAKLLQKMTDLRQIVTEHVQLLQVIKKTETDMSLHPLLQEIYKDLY

human GPR40 (A1 site) = target: T3, human GPR40 (A1 site) (Homo sapiens, UniProt O14842); assay: A1 site radioligand binding with [3H]-TAK-875; conditions: Supplementary Table 1
T3 construct: full length recombinant human GPR40 (GPR40) cDNA; expressed in transfected cells; host or cells: HEK 293, stably transfected; crude cell surface membranes
T3 sequence (O14842 whole entry): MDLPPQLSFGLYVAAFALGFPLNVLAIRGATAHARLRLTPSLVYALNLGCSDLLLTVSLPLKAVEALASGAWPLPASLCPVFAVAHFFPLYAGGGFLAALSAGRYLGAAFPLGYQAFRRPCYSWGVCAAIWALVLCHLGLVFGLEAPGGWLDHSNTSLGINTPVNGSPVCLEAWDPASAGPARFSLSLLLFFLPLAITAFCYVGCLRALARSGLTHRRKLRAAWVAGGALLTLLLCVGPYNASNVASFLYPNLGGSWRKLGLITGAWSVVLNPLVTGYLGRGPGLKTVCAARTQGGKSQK
Method: (§1) Crude cell surface membranes were prepared from human embryonic kidney 293 (HEK 293) cells stably transfected (for the wild type) or transiently transfected (for the mutants and corresponding wild type) with full length recombinant human GPR40 (GPR40) cDNA, using differential centrifugation methods.
A1 Site Binding. 10 µL of compound diluted in 100% DMSO and 90 µL of Assay Buffer (50 mM Tris-HCl, pH 7.5, 5 mM CaCl2, 5 mM MgCl2, 0.1% w/v fatty acid-free BSA) were added to a deep 96-well polypropylene assay plate (Beckman Coulter).
(§2) Assays were terminated by filtration through GF/C glass fiber filtermats (Perkin Elmer) presoaked in 50 mM Tris–HCl, pH 7.5, using a Mach III cell harvester (TomTec). Filtermats were washed two times with 5 mL of ice-cold 50 mM Tris–HCl, pH 7.5 buffer, dried 1 h in a convection oven at 60 °C and embedded with Meltilex A solid scintillant (Perkin Elmer). Radioactivity was determined as counts per min (cpm) using a Trilux Microbeta plate scintillation counter (Perkin Elmer).

human GPR40 (A2 site) = target: T4, human GPR40 (A2 site) (Homo sapiens, UniProt O14842); assay: A2 site radioligand binding with [3H]-AM-1638; conditions: Supplementary Table 1; read-out: Human GPR40 Binding to A2 Ki
T4 construct: full length recombinant human GPR40 (GPR40) cDNA; expressed in transfected cells; host or cells: HEK 293, stably transfected; crude cell surface membranes
T4 sequence (O14842 whole entry): as above
Method: as §1
A2 Site Binding. 10 µL of compound diluted in 100% DMSO and 90 µL of Assay Buffer (50 mM Tris-HCl, pH 7.5, 10 mM CaCl2, 10 mM MgCl2, 0.1% w/v Bacitracin, 2.5% w/v dextran charcoal-treated FBS) were added to a deep 96-well polypropylene assay plate (Beckman Coulter). Two hundred μl of [^3H]-AM-1638 (84 Ci/mmol, Quotient Bioresearch Radiochemicals, Ltd.; 0.5 nM final concentration) and 200 µL of GPR40 membranes (5 µg/well), both diluted in Assay Buffer, were added to the assay plate, followed by a 1 min shake and a 1 h incubation at room temperature (22 °C).
as §2

human PPARalpha = target: T5, human PPARalpha (Homo sapiens, UniProt Q07869); assay: human PPARalpha binding; conditions: Supplementary Table 1
T5 sequence (Q07869 1-468): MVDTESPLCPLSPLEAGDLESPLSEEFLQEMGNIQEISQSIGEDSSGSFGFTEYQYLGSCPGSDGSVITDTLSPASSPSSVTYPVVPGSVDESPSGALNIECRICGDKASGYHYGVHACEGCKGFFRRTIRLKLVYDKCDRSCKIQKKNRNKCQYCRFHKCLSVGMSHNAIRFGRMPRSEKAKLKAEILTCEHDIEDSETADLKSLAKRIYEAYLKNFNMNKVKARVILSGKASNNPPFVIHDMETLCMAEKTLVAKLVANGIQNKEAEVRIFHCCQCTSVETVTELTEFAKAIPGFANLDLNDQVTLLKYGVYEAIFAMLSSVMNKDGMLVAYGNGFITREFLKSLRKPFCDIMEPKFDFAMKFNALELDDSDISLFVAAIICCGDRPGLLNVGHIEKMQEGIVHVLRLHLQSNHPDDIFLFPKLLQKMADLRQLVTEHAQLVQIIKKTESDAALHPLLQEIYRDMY

human PPARdelta = target: T6, human PPARdelta (Homo sapiens, UniProt Q03181); assay: human PPARdelta binding; conditions: Supplementary Table 1
T6 sequence (Q03181 1-441): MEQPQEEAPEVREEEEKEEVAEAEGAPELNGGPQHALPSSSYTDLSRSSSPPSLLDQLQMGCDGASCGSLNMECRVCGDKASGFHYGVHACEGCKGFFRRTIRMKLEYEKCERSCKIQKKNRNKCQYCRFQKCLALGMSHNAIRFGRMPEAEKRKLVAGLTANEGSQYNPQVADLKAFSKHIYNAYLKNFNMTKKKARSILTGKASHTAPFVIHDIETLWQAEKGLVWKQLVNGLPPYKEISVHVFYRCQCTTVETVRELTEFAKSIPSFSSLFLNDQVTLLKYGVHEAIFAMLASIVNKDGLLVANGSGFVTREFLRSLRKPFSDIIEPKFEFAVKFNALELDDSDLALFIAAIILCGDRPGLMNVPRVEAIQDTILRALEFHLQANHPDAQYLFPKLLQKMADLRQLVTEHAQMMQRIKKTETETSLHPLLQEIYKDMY

Mouse GPR40 = Mouse GPR40 (Mus musculus, UniProt Q76JU9); assay: Mouse GPR40 b-arrestin; assay type: cell-based
Mouse GPR40, sequence (Q76JU9 whole entry): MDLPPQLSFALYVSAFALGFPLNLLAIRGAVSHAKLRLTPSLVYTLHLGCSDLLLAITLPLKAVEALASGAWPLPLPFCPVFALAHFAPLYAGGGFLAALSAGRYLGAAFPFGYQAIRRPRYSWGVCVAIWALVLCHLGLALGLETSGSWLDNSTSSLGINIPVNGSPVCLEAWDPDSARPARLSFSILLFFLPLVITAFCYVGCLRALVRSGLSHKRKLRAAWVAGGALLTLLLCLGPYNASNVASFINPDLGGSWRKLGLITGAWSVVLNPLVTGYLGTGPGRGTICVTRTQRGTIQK

Rat GPR40 = Rat GPR40 (Rattus norvegicus, UniProt Q8K3T4); assay: Rat GPR40 b-arrestin; assay type: cell-based
Rat GPR40, sequence (Q8K3T4 whole entry): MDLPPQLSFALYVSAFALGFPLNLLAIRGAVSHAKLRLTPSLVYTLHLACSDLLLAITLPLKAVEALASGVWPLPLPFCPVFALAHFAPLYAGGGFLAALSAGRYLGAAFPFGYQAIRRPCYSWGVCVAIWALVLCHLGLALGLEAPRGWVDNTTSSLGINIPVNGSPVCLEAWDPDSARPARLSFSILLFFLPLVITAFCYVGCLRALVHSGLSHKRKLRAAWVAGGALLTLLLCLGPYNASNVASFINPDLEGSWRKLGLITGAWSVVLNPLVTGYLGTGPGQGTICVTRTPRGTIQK

Human GPR120 [3] = target: T7, Human GPR120 (Homo sapiens, UniProt Q5NUL3); assay: Human GPR120 Calcium (FLIPR); assay type: cell-based; conditions: Supplementary Table 1
T7 sequence (Q5NUL3 1-361): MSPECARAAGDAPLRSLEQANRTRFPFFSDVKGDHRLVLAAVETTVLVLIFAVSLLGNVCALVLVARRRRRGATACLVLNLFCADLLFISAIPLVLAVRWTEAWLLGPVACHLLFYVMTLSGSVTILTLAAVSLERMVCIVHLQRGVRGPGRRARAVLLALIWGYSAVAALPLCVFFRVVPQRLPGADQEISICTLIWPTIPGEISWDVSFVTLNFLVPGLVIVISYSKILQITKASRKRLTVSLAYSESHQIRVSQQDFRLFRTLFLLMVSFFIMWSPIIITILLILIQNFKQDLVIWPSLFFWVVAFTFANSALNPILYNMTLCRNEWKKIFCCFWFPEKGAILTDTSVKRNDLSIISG

human GPR40 [4] = target: T1, human GPR40; assay: Human GPR40 b-arrestin; assay type: cell-based
Human GPR120 [5] = target: T7, Human GPR120; assay: Human GPR120 binding; conditions: Supplementary Table 1
Human GPR120 [6] = target: T7, Human GPR120; assay: Human GPR120 b-arrestin; assay type: cell-based; conditions: Supplementary Table 1
Mouse GPR120 = target: T8, Mouse GPR120 (Mus musculus, UniProt Q7TMA4); assay: Mouse GPR120 b-arrestin; assay type: cell-based; conditions: Supplementary Table 1
T8 sequence (Q7TMA4 1-361): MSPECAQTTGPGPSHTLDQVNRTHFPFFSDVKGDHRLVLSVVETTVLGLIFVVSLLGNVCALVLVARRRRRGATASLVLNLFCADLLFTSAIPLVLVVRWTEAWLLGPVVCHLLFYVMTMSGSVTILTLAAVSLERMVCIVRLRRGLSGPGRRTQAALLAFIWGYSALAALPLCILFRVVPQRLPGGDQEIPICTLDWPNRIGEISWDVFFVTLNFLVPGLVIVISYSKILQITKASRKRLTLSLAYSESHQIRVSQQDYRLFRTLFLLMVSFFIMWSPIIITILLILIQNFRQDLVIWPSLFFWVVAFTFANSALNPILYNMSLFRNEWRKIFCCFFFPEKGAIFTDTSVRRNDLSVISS

GPR40 KO mice = assay: OGTT in GPR40 KO mice; assay type: in vivo, mouse; conditions: high dose of compound 1
Method: Eight to thirteen week old male C57BL/6 or KO mice were used. The day before the study, at 1600 hours, animals were transferred into clean cages and food was removed. The following morning (~0800 hours), mice were randomized by block randomization to treatment groups (N = 5–7 per group) so each group had similar mean and standard deviation of body weight and blood glucose. […] Animals were dosed with vehicle (0.5% MC/0.25% Tween-80) or the test article by oral gavage. Group allocations were not blinded from the experimenters who collected the data. After 60 min compound treatment animals were then given an oral gavage of glucose (2 g/kg). At 0, 15, 30, 60, and 120 min post oral glucose, two glucose readings via glucometers were obtained. The average of two glucose readings was reported at each time point. Data were expressed as mean±standard error (s.e.m.). Blood glucose values were analyzed using ANOVA with repeated measures. Cook’s distance was also calculated from linear regression. All animals were included in the analysis with their individual averaged Cook’s distance < 1. Dunnett’s comparison was performed at each time point by R program. Significance is denoted at p < 0.05.

[7] = test system: GPR40 knock-out (KO) mice; assay: IPGTT in GPR40 knock-out mice; assay type: in vivo, mouse; conditions: high dose of compound 1
Method: Nine to ten week old male ICR mice (Envigo) and GPR40 KO mice (Taconic) were used. The day before an IPGTT (~1600), animals were fasted in clean cages. The following morning (~0800), animals were randomized on fasting glucose and body weight (N = 6 per group). Mice were orally administered a test article or vehicle 60 min prior to an intraperitoneal (IP) injection of glucose (2g/kg). Blood glucose levels were determined by a glucometer from tail bleeds taken at 0, 15, 30, 60, and 120 min after the glucose challenge. An average of two readings were reported at each time point. Also, blood samples were collected into serum tubes at 0, 3, 6, and 15 min post glucose injection for insulin measurement. Serum tubes were centrifuged at 3000g for 5 min and serum transferred into 96-well plates for insulin analysis by a Mesoscale rat/mouse insulin assay.

T1 sequence (O14842 whole entry): as the sequence (O14842 whole entry) above

Row | Molecule | EC50 (human GPR40 [1]) [nM] | Emax (human GPR40 [1]) [%] | EC50 (human GPR40 [2]) [nM] | Emax (human GPR40 [2]) [%] | Ki (human PPARgama) [nM] | Ki (human GPR40 (A1 site)) [nM] | Ki (human GPR40 (A2 site)) [nM] | Ki (human PPARalpha) [nM] | IC50 (human PPARdelta) [nM] | EC50 (Mouse GPR40) [nM] | Emax (Mouse GPR40) [%] | EC50 (Rat GPR40) [nM] | Emax (Rat GPR40) [%] | EC50 (Human GPR120 [3]) [nM] | EC50 (human GPR40 [4]) [nM] | Emax (human GPR40 [4]) [%] | other results
1 | COc1ccc(F)c(-c2ccc(COc3cccc([C@@H](CC(=O)O)C4CC4)c3)cc2C2=CCCC2(C)C)c1 [AM-1638] | 1.7 | 98 | 0.25 | 197 | > 10000 | > 6910 | 1.4 | 3170 | > 10000 | 22.7 | 112 | 105 | 113 | 2870 | 16 | 153 | Emax (Human GPR120 [3]): 63%
2 | CC#C[C@@H](CC(=O)O)c1ccc(OCc2ccc(CN3CCC4(C=Cc5ccccc54)CC3)cc2)cc1 [LY2881835] | 9.1 | 62 | 1.24 | 162 | > 10000 | 4.7 | > 3720 | > 10000 | > 10000 | 0.8 | 133 | 2 | 124 | > 50000 | 8.7 | 137 | Ki (Human GPR120 [5]): > 100000 nM; EC50 (Human GPR120 [6]): > 100000 nM; EC50 (Mouse GPR120): > 50000 nM
3 | N[C@@H](CC(=O)N1CCn2c(nnc2C(F)(F)F)C1)Cc1cc(F)c(F)cc1F [sitagliptin, reference compound] |  |  |  |  |  |  |  |  |  |  |  |  |  |  |  |  | blood glucose in OGTT, GPR40 KO (GPR40 KO mice): respond to glucose lowering
4 | semaglutide [reference compound] |  |  |  |  |  |  |  |  |  |  |  |  |  |  |  |  | glucose lowering in IPGTT, GPR40 KO [7]: can be triggered; insulin secretion in IPGTT, GPR40 KO [7]: can be triggered
